Structures can show the parent of a compound that is named as a salt.
Each compound was assayed against T1, Nav1.7 (or SCN9A) channel (Homo sapiens, UniProt Q15858) (assay: Nav1.7 (hSCN9A) channel block, PatchXpress whole-cell electrophysiology). Conditions: PatchXpress platform; HEK cells stably transfected with hSCN9A; estimated IC-50 calculated from single point % inhibition at V1/2; read-out: Nav1.7 EIC50.
T1 construct: expressed in transfected cells
Type: cell-based
Description: The ability of the compounds of formula (I) to block the Nav1.7 (or SCN9A) channel were measured using the assay described below.
Human Embryonic Kidney (HEK) cells were transfected with an hSCN9A construct using lipofectamine reagent (Invitrogen), using standard techniques. Cells stably expressing the hSCN9A constructs were identified by their resistance to G-418 (400 μg/ml). Clones were screened for expression using the whole-cell voltage-clamp technique.
HEK cells stably transfected with hSCN9A were maintained in DMEM medium supplemented with 10% heat-inactivated fetal bovine serum and 400 μg/ml G-418 in an incubator at 37° C. with a humidified atmosphere of 10% CO2. For HTS, cells were harvested from flasks by trypsinization and replated in an appropriate multi-well plate (typically 96 or 384 wells/plate) such that confluence would be achieved within 24 hours of plating. For electrophysiological studies, cells were removed from the culture flask by brief trypsinization and re-plated at low density onto glass cover slips. Cells were typically used for electrophysiological experiments within 24 to 72 hours after plating.
Cover slips containing HEK cells expressing hSCN9A were placed in a bath on the stage of an inverted microscope and perfused (approximately 1 ml/minutes) with extracellular solution of the following composition: 138 mM NaCl, 2 mM CaCl2, 5.4 mM KCl, 1 mM MgCl2, 10 mM glucose, and 10 mM HEPES, pH 7.4, with NaOH. […] The osmolarity of the extracellular and intracellular solutions was 300 mOsm/kg and 295 mOsm/kg, respectively. All recordings were made at room temperature (22-24° C.) using AXOPATCH 200B amplifiers and PCLAMP software (Axon Instruments, Burlingame, Calif.).
hSCN9A currents in HEK cells were measured using the whole-cell configuration of the patch-clamp technique (Hamill et al., 1981). Uncompensated series resistance was typically 2 to 5 mega ohms and >85% series resistance compensation was routinely achieved. As a result, voltage errors were negligible and no correction was applied. Current records were acquired at 20 to 50 KHz and filtered at 5 to 10 KHz.
HEK cells stably transfected with hSCN9A were viewed under Hoffman contrast optics and placed in front of an array of flow pipes emitting either control or compound-containing extracellular solutions. All compounds were dissolved in dimethyl sulfoxide to make 10 mM stock solutions, which were then diluted into extracellular solution to attain the final concentrations desired. […] The voltage-dependence of inactivation was determined by applying a series of depolarizing prepulses (8 sec long in 10 mV increments) from a negative holding potential. The voltage was then immediately stepped to 0 mV to assess the magnitude of the sodium current. Currents elicited at 0 mV were plotted as a function of prepulse potential to allow estimation of the voltage at which 50% of the channels were inactivated (midpoint of inactivation or V1/2). Compounds were tested for their ability to inhibit hSCN9A sodium channels by activating the channel with a 20 msec voltage step to 0 mV following an 8 second conditioning prepulse to the empirically determined V1/2. Compound effect (% inhibition) was determined by difference in current amplitude before and after application of test compounds. […] Inhibition values <20% and >80% were excluded from the calculation.
Electrophysiological assays were conducted with PatchXpress 7000 hardware and associated software (Molecular Devices Corp). All assay buffers and solutions were identical to those used in conventional whole-cell voltage clamp experiments described above. hSCN9A cells were grown as above to 50%-80% confluency and harvested by trypsinization. Trypsinized cells were washed and resuspended in extracellular buffer at a concentration of 1×10^6 cells/ml. The onboard liquid handling facility of the PatchXpress was used for dispensing cells and application of test compounds. […]

T1 sequence (Q15858 whole entry): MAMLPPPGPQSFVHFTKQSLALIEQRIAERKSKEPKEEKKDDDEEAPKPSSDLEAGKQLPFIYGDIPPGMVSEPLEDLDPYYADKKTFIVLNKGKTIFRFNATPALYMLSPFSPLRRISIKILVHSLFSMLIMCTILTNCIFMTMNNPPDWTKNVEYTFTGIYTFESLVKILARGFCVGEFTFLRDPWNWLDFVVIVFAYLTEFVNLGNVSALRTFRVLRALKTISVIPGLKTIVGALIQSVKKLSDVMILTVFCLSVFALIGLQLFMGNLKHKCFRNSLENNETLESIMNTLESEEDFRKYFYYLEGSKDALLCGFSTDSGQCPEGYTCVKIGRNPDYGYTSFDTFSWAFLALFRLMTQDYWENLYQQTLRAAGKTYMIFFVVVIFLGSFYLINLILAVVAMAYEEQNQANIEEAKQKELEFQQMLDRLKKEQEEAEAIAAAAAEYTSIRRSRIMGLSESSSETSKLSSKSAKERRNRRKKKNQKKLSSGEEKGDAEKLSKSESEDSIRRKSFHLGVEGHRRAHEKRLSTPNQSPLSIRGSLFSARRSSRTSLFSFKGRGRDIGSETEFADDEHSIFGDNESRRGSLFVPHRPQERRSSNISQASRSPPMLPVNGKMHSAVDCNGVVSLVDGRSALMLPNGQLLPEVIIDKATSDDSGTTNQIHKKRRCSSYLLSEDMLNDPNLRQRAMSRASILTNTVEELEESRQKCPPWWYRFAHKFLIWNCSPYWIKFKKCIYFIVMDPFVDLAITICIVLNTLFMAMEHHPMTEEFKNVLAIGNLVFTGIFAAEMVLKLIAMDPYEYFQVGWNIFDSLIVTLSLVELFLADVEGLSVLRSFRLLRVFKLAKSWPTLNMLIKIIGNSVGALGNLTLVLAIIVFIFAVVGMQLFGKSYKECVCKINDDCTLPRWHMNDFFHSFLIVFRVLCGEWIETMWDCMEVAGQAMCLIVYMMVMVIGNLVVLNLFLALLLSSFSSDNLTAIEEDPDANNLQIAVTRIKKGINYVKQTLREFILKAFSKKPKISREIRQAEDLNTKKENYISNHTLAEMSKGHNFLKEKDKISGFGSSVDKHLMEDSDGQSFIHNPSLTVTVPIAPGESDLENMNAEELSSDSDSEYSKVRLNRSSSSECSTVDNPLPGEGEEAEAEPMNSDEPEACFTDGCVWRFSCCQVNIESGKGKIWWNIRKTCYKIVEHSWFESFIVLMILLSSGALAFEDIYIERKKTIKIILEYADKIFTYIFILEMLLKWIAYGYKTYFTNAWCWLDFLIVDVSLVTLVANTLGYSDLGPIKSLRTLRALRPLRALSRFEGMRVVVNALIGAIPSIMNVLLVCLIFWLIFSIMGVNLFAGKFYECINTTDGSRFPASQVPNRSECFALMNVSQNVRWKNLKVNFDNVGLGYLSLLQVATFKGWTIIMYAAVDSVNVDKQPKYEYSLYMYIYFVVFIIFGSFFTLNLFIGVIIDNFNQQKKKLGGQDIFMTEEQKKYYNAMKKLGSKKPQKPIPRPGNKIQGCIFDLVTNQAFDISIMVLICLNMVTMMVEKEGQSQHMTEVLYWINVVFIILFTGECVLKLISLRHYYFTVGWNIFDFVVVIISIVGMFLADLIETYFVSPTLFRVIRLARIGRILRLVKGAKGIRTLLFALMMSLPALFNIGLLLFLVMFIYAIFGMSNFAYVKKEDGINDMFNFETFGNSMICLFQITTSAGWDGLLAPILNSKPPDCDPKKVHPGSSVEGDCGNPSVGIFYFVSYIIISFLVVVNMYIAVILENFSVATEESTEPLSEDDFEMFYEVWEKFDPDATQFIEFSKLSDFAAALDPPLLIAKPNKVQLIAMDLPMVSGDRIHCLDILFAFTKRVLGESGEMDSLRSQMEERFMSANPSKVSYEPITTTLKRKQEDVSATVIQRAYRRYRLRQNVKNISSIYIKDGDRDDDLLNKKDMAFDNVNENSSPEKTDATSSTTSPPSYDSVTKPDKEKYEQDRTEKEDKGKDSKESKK

Row | Structure (SMILES) | IC50 [nM]
1 | CS(=O)(=O)NC(=O)c1ccc(COc2ccc(Cl)cn2)cc1 [Example 63, 4-{[(5-Chloropyridin-2-yl)oxy]methyl}-N-(methylsulfonyl)benzamide] | 6600
2 | CS(=O)(=O)NC(=O)c1ccc(COc2cc(C(F)(F)F)c(Cl)cn2)cc1 [Example 62, 4-({[5-Chloro-4-(trifluoromethyl)pyridin-2-yl]oxy}methyl)-N-(methylsulfonyl)benzamide] | 3410
3 | CC(C)COc1ncc(OCc2cc(F)c(C(=O)NS(C)(=O)=O)cc2F)cc1Cl [Example 1, 4-{[(5-Chloro-6-isobutoxypyridin-3-yl)oxy]methy}-2,5-difluoro-N-(methylsulfonyl)benzamide diethylamine salt] | 13.9
4 | COc1ccc(OCc2ccc(C(=O)NS(C)(=O)=O)cc2)cn1 [Example 7, 4-{[(6-Methoxypyridin-3-yl)oxy]methyl}-N-(methylsulfonyl)benzamide] | 35700
5 | CS(=O)(=O)NC(=O)c1ccc(COc2cccc3cnccc23)cc1 [Example 52] | > 3000
6 | CS(=O)(=O)NC(=O)c1ccc(COc2cncc(Cl)c2)cc1 [Example 10, 4-((5-Chloropyridin-3-yloxy)methyl)-N-(methylsulfonyl)benzamide] | 8460
7 | CC(C)c1ncc2ncc(COc3cc(F)c(C(=O)NS(C)(=O)=O)cc3Cl)cn12 [Example 50] | > 3000
8 | COc1ncc(COc2ccc(C(=O)NS(C)(=O)=O)cc2Cl)cc1Cl [Example 51] | 6230
9 | COc1cc(COc2cnc(OC(C)C)c(Cl)c2)ccc1C(=O)NS(C)(=O)=O [Example 48, 4-{[(5-Chloro-6-isopropoxypyridin-3-yl)oxy]methyl}-2-methoxy-N-(methylsulfonyl)benzamide] | > 3000
10 | COc1ncc(OCc2ccc(C(=O)NS(C)(=O)=O)cc2)cc1Cl [Example 6, 4-((5-Chloro-6-methoxypyridin-3-yloxy)methyl)-N-(methylsulfonyl)benzamide] | 3580
11 | CS(=O)(=O)NC(=O)c1cc(F)c(OCc2ccc(Cl)cn2)cc1F [Example 64, 4-[(5-Chloropyridin-2-yl)methoxy]-2,5-difluoro-N-(methylsulfonyl)benzamide diethylamine salt] | > 1000
12 | COc1cc(C(=O)NS(C)(=O)=O)ccc1COc1cnc(OCC(C)C)c(Cl)c1 [Example 5, 4-((5-Chloro-6-isobutoxypyridin-3-yloxy)methyl)-3-methoxy-N-(methylsulfonyl)benzamide diethylamine salt] | 281

Further lines, results first:

Row | IC50 [nM] | Structure (SMILES)
13 | > 3000 | CS(=O)(=O)NC(=O)c1cc(F)c(COc2cncc(Cl)c2)cc1F [Example 20, 4-{[(5-Chloropyridin-3-yl)oxy]methyl}-2,5-difluoro-N-(methylsulfonyl)benzamide]
14 | 156 | CS(=O)(=O)NC(=O)c1cc(F)c(COc2cnc(OCC3CC3)c(Cl)c2)cc1F [Example 17, 4-((5-Chloro-6-(cyclopropylmethoxy)pyridin-3-yloxy)methyl)-2,5-difluoro-N-(methylsulfonyl)benzamide]
15 | 9.1 | CS(=O)(=O)NC(=O)c1cc(Cl)c(COc2cnc(OCC(F)(F)C(F)F)c(Cl)c2)cc1F [Example 37, 5-Chloro-4-({[5-chloro-6-(2,2,3,3-tetrafluoropropoxy)pyridin-3-yl]oxy}methyl)-2-fluoro-N-(methylsulfonyl)benzamide]
16 | 51.8 | CS(=O)(=O)NC(=O)c1cc(Cl)c(COc2cnc(C3CC3)c(Cl)c2)cc1F [Example 42, 5-Chloro-4-{[(5-chloro-6-cyclopropylpyridin-3-yl)oxy]methyl}-2-fluoro-N-(methylsulfonyl)benzamide]
17 | 30.8 | [2H]C([2H])([2H])C(Oc1ncc(OCc2cc(F)c(C(=O)NS(C)(=O)=O)cc2F)cc1Cl)(C([2H])([2H])[2H])C([2H])([2H])[2H] [Example 15]
18 | 843 | CS(=O)(=O)NC(=O)c1cc(F)c(COc2cnc(C(F)(F)F)c(Cl)c2)cc1F [Example 12, 4-({[5-Chloro-6-(trifluoromethyl)pyridin-3-yl]oxy}methyl)-2,5-difluoro-N-(methylsulfonyl)benzamide]
19 | 6850 | CC(C)Oc1ncc(OCc2cc(F)c(C(=O)NS(C)(=O)=O)cc2Cl)cn1 [Example 58, 5-Chloro-2-fluoro-4-{[(2-isopropoxypyrimidin-5-yl)oxy]methyl}-N-(methylsulfonyl)benzamide]
20 | 9.7 | CC(C)(Oc1ncc(OCc2cc(F)c(C(=O)NS(C)(=O)=O)cc2F)cc1Cl)C(F)(F)F [Example 49, 4-({[5-Chloro-6-(2,2,2-trifluoro-1,1-dimethylethoxy)pyridin-3-yl]oxy}methyl)-2,5-difluoro-N-(methylsulfonyl)benzamide]
21 | 52.7 | CC(C)C(F)(F)c1ncc(OCc2cc(F)c(C(=O)NS(C)(=O)=O)cc2Cl)cc1Cl [Example 36, 5-Chloro-4-({[5-chloro-6-(1,1-difluoro-2-methylpropyl)pyridin-3-yl]oxy}methyl)-2-fluoro-N-(methylsulfonyl)benzamide]
22 | 18 | CS(=O)(=O)NC(=O)c1cc(Cl)c(COc2cnc(OCC(F)(F)C(F)(F)F)c(Cl)c2)cc1F [Example 46, 5-Chloro-4-({[5-chloro-6-(2,2,3,3,3-pentafluoropropoxy)pyridin-3-yl]oxy}methyl)-2-fluoro-N-(methylsulfonyl)benzamide]
23 | 6720 | CS(=O)(=O)NC(=O)c1cc(F)c(COc2ccc(C(F)(F)F)cn2)cc1F [Example 56, 2,5-Difluoro-N-(methylsulfonyl)-4-({[5-(trifluoromethyl)pyridin-2-yl]oxy}methyl)benzamide]
24 | 82.2 | [2H]C(C)(C)Oc1ncc(OCc2cc(F)c(C(=O)NS(C)(=O)=O)cc2Cl)cc1Cl [Example 34, 5-Chloro-4-{[(5-chloro-6-d1-isopropoxypyridin-3-yl)oxy]methyl}-2-fluoro-N-(methylsulfonyl)benzamide]
25 | 161 | [2H]C([2H])([2H])C([2H])(Oc1ncc(OCc2cc(F)c(C(=O)NS(C)(=O)=O)cc2F)cc1Cl)C([2H])([2H])[2H] [Example 21, 4-{[(5-Chloro-6-d7-isopropoxypyridin-3-yl)oxy]methyl}-2,5-difluoro-N-(methylsulfonyl)benzamide]
26 | 21.5 | CC(C)(C)c1ncc(OCc2cc(F)c(C(=O)NS(C)(=O)=O)cc2Cl)cc1Cl [Example 38, 4-{[(6-tert-Butyl-5-chloropyridin-3-yl)oxy]methyl}-5-chloro-2-fluoro-N-(methylsulfonyl)benzamide]
27 | 730 | CS(=O)(=O)NC(=O)c1cc(F)c(COc2cnc(OCC3CC(F)(F)C3)c(Cl)c2)cc1F [Example 19, 4-((5-Chloro-6-((3,3-difluorocyclobutyl)methoxy)pyridin-3-yloxy)methyl)-2,5-difluoro-N-(methylsulfonyl)benzamide]
28 | 81.4 | CC(C)(F)COc1ncc(OCc2cc(F)c(C(=O)NS(C)(=O)=O)cc2F)cc1Cl [Example 13, 4-((5-Chloro-6-(2-fluoro-2-methylpropoxy)pyridin-3-yloxy)methyl)-2,5-difluoro-N-(methylsulfonyl)benzamide]
29 | < 100 | CC(Oc1ncc(OCc2cc(F)c(C(=O)NS(C)(=O)=O)cc2Cl)cc1Cl)C(F)(F)F (stereo not drawn) [Example 31, 5-Chloro-4-((5-chloro-6-(1,1,1-trifluoropropan-2-yloxy)pyridin-3-yloxy)methyl)-2-fluoro-N-(methylsulfonyl)benzamide]
30 | 150 | CS(=O)(=O)NC(=O)c1cc(F)c(COc2cnc(OCC(F)(F)F)c(Cl)c2)cc1F [Example 16, 4-((5-Chloro-6-(2,2,2-trifluoroethoxy)pyridin-3-yloxy)methyl)-2,5-difluoro-N-(methylsulfonyl)benzamide]

Source: patent publication US9102621B2, “Acyl sulfonamide compounds” (Pfizer Limited, priority 2010, dated 2015)
